This is an account of results in patent publication US20250368636A1, “NOVEL HETEROCYCLIC COMPOUND, SALT THEREOF, AND L[…] COMPOSITION” (The University of Electro-Communications, priority 2022, published 2025).

The assay concerns the target natural firefly luciferase (Fluc) (Photinus pyralis, UniProt P08659). The assay can be described thus: Measurement of emission spectrum with natural firefly luciferase, ATP magnesium salt and luminescent substrate. The format is biochemical. The following applies: 100 μM substrate solution, KPB pH 8.0, Fluc 1 mg/mL, 10 mM ATP magnesium salt, measured for 180 seconds. The protocol:
The emission spectra were measured using the luminescent substrates represented by the structural formulas (1-1) to (1-10) synthesized as described above and the luminescent substrate represented by the structural formula (a) below. The luminescent substrate represented by the structural formula (a) was prepared according to “Synthesis of Luminescent Substrate C” in WO 2021/193069 A1 (PTL 4).
Specifically, 5 μL of 500 mM potassium phosphate buffer (KPB, pH 8.0), 5 μL of a 100 μM solution of each luminescent substrate, 5 µL of a 1 mg/mL solution of natural firefly luciferase (Fluc), and 10 μL of a 10 mM ATP magnesium salt solution were mixed, and the emission spectrum was measured for 180 seconds using a luminescence measurement device (AB-1850 manufactured by ATTO Corporation). However, the substrate concentration for the luminescent substrate represented by the structural formula (a) was set to 1 mM, and the substrate concentration for the luminescent substrate represented by the structural formula (1-6) was set to 10 mM. Note that FIGS. 1 to 3 illustrate emission spectra normalized so that the maximum emission intensity was 1.

Sequence of natural firefly luciferase (Fluc) (P08659 whole entry): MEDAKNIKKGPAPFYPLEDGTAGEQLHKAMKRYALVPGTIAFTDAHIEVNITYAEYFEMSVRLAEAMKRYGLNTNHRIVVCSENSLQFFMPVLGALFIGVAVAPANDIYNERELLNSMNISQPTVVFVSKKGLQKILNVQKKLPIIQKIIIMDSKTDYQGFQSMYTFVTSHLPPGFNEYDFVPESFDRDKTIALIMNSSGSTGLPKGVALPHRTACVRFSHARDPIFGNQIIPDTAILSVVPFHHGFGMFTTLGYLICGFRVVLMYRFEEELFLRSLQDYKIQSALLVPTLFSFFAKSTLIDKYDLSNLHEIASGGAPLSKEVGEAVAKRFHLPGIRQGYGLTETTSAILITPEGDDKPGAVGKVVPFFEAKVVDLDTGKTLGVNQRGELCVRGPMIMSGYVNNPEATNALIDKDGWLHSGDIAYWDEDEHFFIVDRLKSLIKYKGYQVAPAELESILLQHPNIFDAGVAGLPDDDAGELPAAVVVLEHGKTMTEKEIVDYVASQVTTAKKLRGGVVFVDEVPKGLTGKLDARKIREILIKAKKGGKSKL

Take `Cn1cccc1/C=C/c1ccc(C2=N[C@@H](C(=O)O)CS2)nc1` [Compound of structural formula (1-4)]: the “Maximum emission wavelength for each substrate (λmax)” value (from here on “Maximum emission wavelength”) stood at 660 nm.
With `CN(C)c1ncc(/C=C/c2ccc(C3=N[C@@H](C(=O)O)CS3)nc2)s1` [Compound of structural formula (1-7)], the “Maximum emission wavelength” value is given as 710 nm.
The same measure for `O=C(O)[C@H]1CSC(c2ccc(/C=C/c3ccc[nH]3)cn2)=N1` [Compound of structural formula (1-2)]: 660 nm; for `CN(C)c1ncc(/C=C/c2ccc(C3=N[C@@H](C(=O)O)CS3)cc2)s1` [Compound of structural formula (1-8)]: 680 nm; for `O=C(O)[C@H]1CSC(c2ccc(/C=C/c3ccc[nH]3)cc2)=N1` [Compound of structural formula (1-1)]: 640 nm.
As to `Cn1cccc1/C=C/c1ccc(C2=N[C@@H](C(=O)O)CS2)cc1` [Compound of structural formula (1-3)], the “Maximum emission wavelength” value is listed as 640 nm.
Take `CN(C)c1cnc(/C=C/c2ccc(C3=N[C@@H](C(=O)O)CS3)nc2)s1` [Compound of structural formula (1-9)]: the “Maximum emission wavelength” value worked out at 760 nm.
Consider `CN(C)c1cnc(/C=C/c2ccc(C3=N[C@@H](C(=O)O)CS3)cn2)s1` [Compound of structural formula (1-10)], for which the “Maximum emission wavelength” value was found to be 730 nm.
